Active and inactive are the calls of the source. The rule behind the calls is not given here.
System: CCRIS mutagenicity, Ames/micronucleus/aberration tests
Assay: CCRIS mutagenicity studies
[1] = Test System: AMES SALMONELLA TYPHIMURIUM, Strain/Indicator: TA1535, Metabolic Activation: NONE, Method: STANDARD PLATE

Cc1cc(-c2ccc(N=C=O)c(C)c2)ccc1N=C=O was tested, and the mutagenic call (End Point: IN VITRO CHROMOSOMAL ABERRATIONS, Test System: CHL CELLS, Metabolic Activation: RAT, LIVER, S-9, SODIUM PHENOBARBITAL AND 5,6-BENZOFLAVONE) was “active; positive (structural changes)”, the mutagenic call (Test System: AMES SALMONELLA TYPHIMURIUM, Strain/Indicator: TA98, Metabolic Activation: NONE, Method: PREINCUBATION) was “inactive; negative” and the mutagenic call (Test System: AMES SALMONELLA TYPHIMURIUM, Strain/Indicator: TA98, Metabolic Activation: RAT LIVER S-9, PHENOBARBITAL AND BETA-NAPHTHOFLAVONE, Method: PREINCUBATION) was “active; positive”. The mutagenic call (Test System: AMES SALMONELLA TYPHIMURIUM, Strain/Indicator: TA100, Metabolic Activation: NONE, Method: PREINCUBATION) was “inactive; negative”, the mutagenic call (Test System: AMES SALMONELLA TYPHIMURIUM, Strain/Indicator: TA100, Metabolic Activation: RAT LIVER S-9, PHENOBARBITAL AND BETA-NAPHTHOFLAVONE, Method: PREINCUBATION) was “inactive; negative” and the mutagenic call (Test System: AMES SALMONELLA TYPHIMURIUM, Strain/Indicator: TA1535, Metabolic Activation: NONE, Method: PREINCUBATION) was “inactive; negative”. For the same compound, the mutagenic call (Test System: AMES SALMONELLA TYPHIMURIUM, Strain/Indicator: TA1535, Metabolic Activation: RAT LIVER S-9, PHENOBARBITAL AND BETA-NAPHTHOFLAVONE, Method: PREINCUBATION) was “inactive; negative”, the mutagenic call (Test System: AMES SALMONELLA TYPHIMURIUM, Strain/Indicator: TA1537, Metabolic Activation: NONE, Method: PREINCUBATION) was “inactive; negative” and the mutagenic call (Test System: AMES SALMONELLA TYPHIMURIUM, Strain/Indicator: TA1537, Metabolic Activation: RAT LIVER S-9, PHENOBARBITAL AND BETA-NAPHTHOFLAVONE, Method: PREINCUBATION) was “inactive; negative”. For the same compound, the mutagenic call (Test System: AMES SALMONELLA TYPHIMURIUM, Strain/Indicator: TA1538, Metabolic Activation: NONE, Method: PREINCUBATION) was “inactive; negative”, the mutagenic call (Test System: AMES SALMONELLA TYPHIMURIUM, Strain/Indicator: TA1538, Metabolic Activation: RAT LIVER S-9, PHENOBARBITAL AND BETA-NAPHTHOFLAVONE, Method: PREINCUBATION) was “active; positive” and the mutagenic call (Test System: E.COLI, Strain/Indicator: WP2UVRA, Metabolic Activation: NONE, Method: PREINCUBATION) was “inactive; negative”. For the same compound, the mutagenic call (Test System: E.COLI, Strain/Indicator: WP2UVRA, Metabolic Activation: RAT LIVER S-9, PHENOBARBITAL AND BETA-NAPHTHOFLAVONE, Method: PREINCUBATION) was “inactive; negative”.
In the case of C[C@]12CC[C@@H](OC(=O)/C=C/c3cccc(N(CCCl)CCCl)c3)C[C@@H]1CC[C@@H]1[C@@H]2CC[C@]2(C)NC(=O)CC[C@@H]12, the mutagenic call (Test System: AMES SALMONELLA TYPHIMURIUM, Strain/Indicator: TA98, Metabolic Activation: NONE, Method: STANDARD PLATE) is reported as “inactive; negative”, the mutagenic call (Test System: AMES SALMONELLA TYPHIMURIUM, Strain/Indicator: TA98, Metabolic Activation: RAT, LIVER, S-9, AROCLOR 1254, Method: STANDARD PLATE) is reported as “inactive; negative” and the mutagenic call (Test System: AMES SALMONELLA TYPHIMURIUM, Strain/Indicator: TA100, Metabolic Activation: NONE, Method: STANDARD PLATE) is reported as “inactive; negative”. For the same compound, the mutagenic call (Test System: AMES SALMONELLA TYPHIMURIUM, Strain/Indicator: TA100, Metabolic Activation: RAT, LIVER, S-9, AROCLOR 1254, Method: STANDARD PLATE) was “inactive; negative”, the mutagenic call [1] was “active; positive” and the mutagenic call (Test System: AMES SALMONELLA TYPHIMURIUM, Strain/Indicator: TA1535, Metabolic Activation: RAT, LIVER, S-9, AROCLOR 1254, Method: STANDARD PLATE) was “active; positive”. For the same compound, the mutagenic call (Test System: AMES SALMONELLA TYPHIMURIUM, Strain/Indicator: TA1537, Metabolic Activation: NONE, Method: STANDARD PLATE) was “inactive; negative” and the mutagenic call (Test System: AMES SALMONELLA TYPHIMURIUM, Strain/Indicator: TA1537, Metabolic Activation: RAT, LIVER, S-9, AROCLOR 1254, Method: STANDARD PLATE) was “inactive; negative”.
For O=C/C(Cl)=C(/Cl)C(=O)O, the mutagenic call [1] was “active; positive” and the mutagenic call (Test System: CHINESE HAMSTER OVARY, Strain/Indicator: CHO-KTL3 (HPRT)/6-THIOGUANINE, Metabolic Activation: NONE) was “active; positive”.

— PubChem BioAssay AID1259407 (Chemical Carcinogenesis Research Information System (CCRIS), 2018)
